# Data: PubChem BioAssay AID1963832 (Molecular Pharmacology Branch, DTP, NCI, 2024)
# pIC50: −log10 of the molar value.
# Tested on: 885724-159-R-J1-PDC complex spheroid viability
# Experiment: Anticancer human tumor 885724-159-R-J1-PDC patient-derived pancreatic adenocarcinoma cell line growth inhibition [POLQ]
# Conditions: for pIC50: curve of first compound; for viability, T/C: stronger effect = lower value
# Summary of the method: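 Growth inhibition in 3D: complex spheroids (tumor PDC, HUVEC, MSC) treated with POLQ inhibitor combinations; where Cmax unknown, highest tested concentration 10 microM, except SN-38 at 1 microM.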
# [1] = second compound 0.0316 µM, first compound 0.0316 µM
# [2] = second compound 0.0316 µM, first compound 0.1 µM
# [3] = second compound 0.0316 µM, first compound 0.316 µM
# [4] = second compound 0.0316 µM, first compound 1 µM
# [5] = second compound 0.0316 µM, first compound 3.16 µM
# [6] = second compound 0.0316 µM, first compound 10 µM
# [7] = second compound 0.1 µM, first compound 0.0316 µM
# [8] = second compound 0.1 µM, first compound 0.1 µM
# [9] = second compound 0.1 µM, first compound 0.316 µM
# [10] = second compound 0.1 µM, first compound 1 µM
# [11] = second compound 0.1 µM, first compound 3.16 µM
# [12] = second compound 0.1 µM, first compound 10 µM
# [13] = second compound 0.316 µM, first compound 0.0316 µM
# [14] = second compound 0.316 µM, first compound 0.1 µM
# [15] = second compound 0.316 µM, first compound 0.316 µM
# [16] = second compound 0.316 µM, first compound 1 µM
# [17] = second compound 0.316 µM, first compound 3.16 µM
# [18] = second compound 0.316 µM, first compound 10 µM
# [19] = second compound 1 µM, first compound 0.0316 µM
# [20] = second compound 1 µM, first compound 0.1 µM
# [21] = second compound 1 µM, first compound 0.316 µM
# [22] = second compound 1 µM, first compound 1 µM
# [23] = second compound 1 µM, first compound 3.16 µM
# [24] = second compound 1 µM, first compound 10 µM
# [25] = second compound 3.16 µM, first compound 0.0316 µM
# [26] = second compound 3.16 µM, first compound 0.1 µM
# [27] = second compound 3.16 µM, first compound 0.316 µM
# [28] = second compound 3.16 µM, first compound 1 µM
# [29] = second compound 3.16 µM, first compound 3.16 µM
# [30] = second compound 3.16 µM, first compound 10 µM
# [31] = second compound 10 µM, first compound 0.0316 µM
# [32] = second compound 10 µM, first compound 0.1 µM
# [33] = second compound 10 µM, first compound 0.316 µM
# [34] = second compound 10 µM, first compound 1 µM
# [35] = second compound 10 µM, first compound 3.16 µM
# [36] = second compound 10 µM, first compound 10 µM
# 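Note: spheroids exposed to compounds for 7 days.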
compound,measurement,setting,value
Nc1ccn(C2OC(CO)C(O)C2(F)F)c(=O)n1 (centres undefined) + COC1C(OC(N)=O)C(O)C(Oc2ccc3c(O)c(NC(=O)c4ccc(O)c(CC=C(C)C)c4)c(=O)oc3c2C)OC1(C)C,pIC50,second compound 0.0316 µM,6.10
same,pIC50,second compound 0.1 µM,5.73
same,pIC50,second compound 0.316 µM,5.51
same,pIC50,second compound 1 µM,6.73
same,pIC50,second compound 3.16 µM,5.81
same,pIC50,second compound 10 µM,< 5.00
same,"viability, T/C",[1],61.7%
same,"viability, T/C",[2],58.4%
same,"viability, T/C",[3],51.4%
same,"viability, T/C",[4],49.7%
same,"viability, T/C",[5],46.8%
same,"viability, T/C",[6],44.3%
same,"viability, T/C",[7],61.6%
same,"viability, T/C",[8],57.6%
same,"viability, T/C",[9],54%
same,"viability, T/C",[10],52.4%
same,"viability, T/C",[11],50.4%
same,"viability, T/C",[12],40%
same,"viability, T/C",[13],67.8%
same,"viability, T/C",[14],55%
same,"viability, T/C",[15],52.7%
same,"viability, T/C",[16],59.5%
same,"viability, T/C",[17],51.8%
same,"viability, T/C",[18],44%
same,"viability, T/C",[19],71.1%
same,"viability, T/C",[20],51.3%
same,"viability, T/C",[21],48.4%
same,"viability, T/C",[22],51.6%
same,"viability, T/C",[23],45.2%
same,"viability, T/C",[24],41.2%
same,"viability, T/C",[25],62.2%
same,"viability, T/C",[26],59.4%
same,"viability, T/C",[27],52.6%
same,"viability, T/C",[28],48.1%
same,"viability, T/C",[29],53.9%
same,"viability, T/C",[30],44.2%
same,"viability, T/C",[31],69.6%
same,"viability, T/C",[32],53.4%
same,"viability, T/C",[33],52.9%
same,"viability, T/C",[34],56.9%
same,"viability, T/C",[35],50.5%
same,"viability, T/C",[36],45.7%
O=C(c1cc(Cc2n[nH]c(=O)c3ccccc23)ccc1F)N1CCN(C(=O)C2CC2)CC1 + COC1C(OC(N)=O)C(O)C(Oc2ccc3c(O)c(NC(=O)c4ccc(O)c(CC=C(C)C)c4)c(=O)oc3c2C)OC1(C)C,pIC50,second compound 0.0316 µM,< 5.00
same,pIC50,second compound 0.1 µM,< 5.00
same,pIC50,second compound 0.316 µM,< 5.00
same,pIC50,second compound 1 µM,< 5.00
same,pIC50,second compound 3.16 µM,< 5.00
same,pIC50,second compound 10 µM,< 5.00
same,"viability, T/C",[1],101%
same,"viability, T/C",[2],93.9%
same,"viability, T/C",[3],91.4%
same,"viability, T/C",[4],88.3%
same,"viability, T/C",[5],90.8%
same,"viability, T/C",[6],78.9%
same,"viability, T/C",[7],97.4%
same,"viability, T/C",[8],85.9%
same,"viability, T/C",[9],86%
same,"viability, T/C",[10],88%
same,"viability, T/C",[11],86.3%
same,"viability, T/C",[12],83.9%
same,"viability, T/C",[13],94.8%
same,"viability, T/C",[14],91.4%
same,"viability, T/C",[15],90.3%
same,"viability, T/C",[16],89.2%
same,"viability, T/C",[17],85.5%
same,"viability, T/C",[18],75.7%
same,"viability, T/C",[19],85.8%
same,"viability, T/C",[20],89.6%
same,"viability, T/C",[21],89.5%
same,"viability, T/C",[22],95.8%
same,"viability, T/C",[23],85.4%
same,"viability, T/C",[24],79.9%
same,"viability, T/C",[25],96.4%
same,"viability, T/C",[26],85.7%
same,"viability, T/C",[27],104%
same,"viability, T/C",[28],85.5%
same,"viability, T/C",[29],92.8%
same,"viability, T/C",[30],79.7%
same,"viability, T/C",[31],96.3%
same,"viability, T/C",[32],83%
same,"viability, T/C",[33],92.4%
same,"viability, T/C",[34],85.1%
same,"viability, T/C",[35],91.1%
same,"viability, T/C",[36],69.9%
